Assay results published in patent publication US20220257782A1, “PEPTIDE THERAPEUTICS FOR AUTOIMMUNE DISEASES AND INFLAMMATORY DISEASES” (GENESEN CO., LTD., priority 2019, published 2022).
Ends that are not written are not given here.

Assays:
TLR4 = molecular target: T1, TLR4 (Mus musculus, UniProt Q9QUK6); assay: Cytokine secretion (ELISA) in LPS-stimulated RAW264.7 cells; format: cell-based; settings: FIG. 2E
T1 construct: endogenous in cells; host or cells: RAW264.7
T1 sequence (Q9QUK6 26-835): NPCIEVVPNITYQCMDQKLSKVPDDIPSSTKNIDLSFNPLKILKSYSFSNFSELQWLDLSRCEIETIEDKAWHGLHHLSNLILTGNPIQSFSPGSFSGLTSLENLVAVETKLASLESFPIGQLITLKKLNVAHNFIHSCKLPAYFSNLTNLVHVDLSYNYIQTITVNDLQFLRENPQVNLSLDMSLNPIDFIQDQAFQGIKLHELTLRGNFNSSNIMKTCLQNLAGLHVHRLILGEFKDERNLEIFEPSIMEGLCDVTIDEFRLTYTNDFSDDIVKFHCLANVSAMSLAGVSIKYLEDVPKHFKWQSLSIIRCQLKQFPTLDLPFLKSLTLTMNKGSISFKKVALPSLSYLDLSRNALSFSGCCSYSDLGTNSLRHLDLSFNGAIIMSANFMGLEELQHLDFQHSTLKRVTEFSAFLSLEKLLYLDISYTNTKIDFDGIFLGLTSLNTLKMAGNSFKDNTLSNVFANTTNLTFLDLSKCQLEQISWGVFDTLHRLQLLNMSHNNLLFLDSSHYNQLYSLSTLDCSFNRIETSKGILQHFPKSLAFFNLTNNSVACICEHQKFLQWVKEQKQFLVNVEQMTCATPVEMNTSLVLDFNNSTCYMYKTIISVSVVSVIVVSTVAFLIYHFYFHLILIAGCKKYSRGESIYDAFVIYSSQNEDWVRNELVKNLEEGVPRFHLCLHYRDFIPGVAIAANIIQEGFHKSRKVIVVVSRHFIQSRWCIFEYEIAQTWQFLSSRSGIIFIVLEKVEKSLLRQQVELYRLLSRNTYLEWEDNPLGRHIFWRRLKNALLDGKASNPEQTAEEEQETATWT
T1 sequence (Q9JHF9 19-160 partner): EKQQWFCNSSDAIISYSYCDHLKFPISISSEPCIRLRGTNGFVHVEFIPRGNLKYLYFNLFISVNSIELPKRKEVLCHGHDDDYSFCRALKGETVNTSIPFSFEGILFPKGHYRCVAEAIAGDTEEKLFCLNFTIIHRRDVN
Experimental: THP-1-derived macrophages and RAW264.7 cells were dispensed into 96-well plates (BD Biosciences) at a density of 2×10^5 cells/well and cultured overnight. After 24 hours of treatment, IL-6 secretion was analyzed using Mouse IL-6 ELISA MAX™ Deluxe (BioLegend, San Diego, Calif., USA), and TNF-α production was evaluated using the Mouse TNF alpha ELISA Ready-SET-GO!® kit (eBioscience, San Diego, Calif., USA). Then, the plate was analyzed at each wavelength using a microplate spectrophotometer system (Molecular Devices).

RAW264.7 cells = assay: Cell viability assay (MTT/MTS), RAW264.7 cells; format: cell-based, mouse; settings: concentration of 50 μM or below; FIG. 2B
Experimental: (§1) HEK-BLUE™ hTLR4 cells were dispensed at a density of 5×10^4 cells/well, and RAW264.7 cells and THP-1 cells were dispensed thereinto at a density of 2×10^5 cells/well. All cells were cultured overnight in 96-well plates (BD Biosciences, San Jose, Calif., USA). Cell viability was determined using colorimetric […] (MTT) assay (Sigma-Aldrich) and/or MTS (3-(4,5-dimethylthiazol-2-yl)-5-(3-carboxymethoxyphenyl)-2-(4-sulfophenyl)-2H-tetrazolium) (Promega Madison, Wis., USA), which was performed as described previously (Kwon, H. K. et al., Toxicological sciences: an official journal of the Society of Toxicology 148, 204-219 (2015)).

THP-1 cells = assay: Cell viability assay (MTT/MTS), THP-1 cells; format: cell-based, human; settings: FIG. 2C
Experimental: as §1

HEK-Blue™ hTLR4 cells = assay: Cell viability assay (MTT/MTS), HEK-BLUE hTLR4 cells; format: cell-based, human; settings: FIG. 2A
Experimental: as §1

[1] = system: IMQ-induced psoriasis in C57BL/6 mice; assay: Imiquimod-induced psoriasis mouse model; format: in vivo; settings: FIG. 5D
Experimental: 6-7 week old C57BL/6 mice were purchased from Orient Bio Inc. (Seongnam, Korea). The mice were housed under specific pathogen-free conditions and provided ad libitum with a standard laboratory diet (STD). All the animal experiments were approved by the Institutional Animal Care and Use Committee (IACUC) of Ajou University (Approval No. 2017-0002). 62.5 mg of ALDARA™ cream (including 5% IMQ; Aldara, 3M Pharmaceutical LLC.) was applied for five consecutive days, resulting in symptoms similar to psoriasis. The normal group was not treated with IMQ but only injected with PBS. […] Factors such as erythema, scaling, wrinkles, and thickening were independently scored from 0 to 4: 0, none; 1, a little; 2, middle; 3, significant; 4, very prominent. Erythema, scaling, and thickness were scored under the close supervision of an experienced researcher. […]
A skin sample obtained from the dorsal lesion of each mouse was fixed in 4% paraformaldehyde solution, embedded in paraffin, and sectioned at a thickness of 7 μm on a glass slide. […] The thickness of the skin was measured using a Leica DMi8 fluorescence microscope which utilizes a Leica LAS X Hardware Configurator. IMQ-mediated inflammation in the skin was evaluated using a mouse-specific HRC/DAB Detection IHC Kit (Abcam, Cat. No. AB64259) with primary antibodies recognizing CD68, CD4, and IL-17. […]

## PFVYLI (cell penetrating peptide)
TLR4
  inhibitory effect on LPS-stimulated RAW 264.7 cells: did not show any inhibitory effect

## RQIKIWFQNRRMKWKKPWCKYQMLQALT [MIP2]
RAW264.7 cells
  cytotoxic effect in RAW264.7 cells: absence of a cytotoxic effect
THP-1 cells
  toxicity in THP-1 cells: does not show toxicity
HEK-Blue™ hTLR4 cells
  toxicity in HEK-Blue hTLR4 cells: do not show toxicity
[1]
  body weight: no significant difference compared to PBS- and MTX-treated mice
